From US5182289A, “Heterobicyclic compounds having antiinflammatory activity” (Schering Corporation, priority 1990, dated 1993)
Where two headings read alike, the source gives them in different places. Each block holds one compound with its values, some of them ahead of it.

Tests used:
[1] = target: T1, 5-lipoxygenase (Homo sapiens, UniProt P09917); assay: 5-Lipoxygenase Assay in human polymorphonuclear (PMN) leukocytes, 5-HETE production; type: cell-based
T1 construct: Human polymorphonuclear (PMN) leukocytes (neutrophils) are obtained from normal healthy volunteers; endogenous in cells; host or cells: human polymorphonuclear leukocytes (neutrophils) from blood of healthy volunteers
T1 sequence (P09917 1-674): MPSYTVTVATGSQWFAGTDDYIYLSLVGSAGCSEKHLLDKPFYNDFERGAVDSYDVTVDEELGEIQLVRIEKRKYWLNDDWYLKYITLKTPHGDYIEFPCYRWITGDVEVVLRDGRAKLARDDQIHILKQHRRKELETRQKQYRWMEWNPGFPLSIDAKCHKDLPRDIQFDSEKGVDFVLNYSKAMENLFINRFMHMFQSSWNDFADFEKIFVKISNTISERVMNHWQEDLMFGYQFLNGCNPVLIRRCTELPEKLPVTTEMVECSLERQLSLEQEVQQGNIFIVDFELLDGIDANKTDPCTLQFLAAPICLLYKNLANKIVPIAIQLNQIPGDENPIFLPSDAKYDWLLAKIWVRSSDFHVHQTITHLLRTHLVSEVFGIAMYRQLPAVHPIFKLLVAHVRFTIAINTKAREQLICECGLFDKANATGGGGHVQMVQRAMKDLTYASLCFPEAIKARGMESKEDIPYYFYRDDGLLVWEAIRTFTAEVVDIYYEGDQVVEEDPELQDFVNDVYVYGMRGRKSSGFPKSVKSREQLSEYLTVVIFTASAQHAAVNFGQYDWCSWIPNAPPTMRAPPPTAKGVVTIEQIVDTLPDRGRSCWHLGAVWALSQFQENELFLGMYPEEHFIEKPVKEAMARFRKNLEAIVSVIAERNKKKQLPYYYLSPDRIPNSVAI
Description: Human polymorphonuclear (PMN) leukocytes (neutrophils) are obtained from normal healthy volunteers by venipuncture and collected with heparin anticoagulant. Neutrophils are isolated by Dextran/Ficol sedimentation as described (Billah et al, J. Biol. Chem. 260, 6899-6906 (1985)). In brief, 30 ml of blood is mixed with 5 ml of dextran (Sigma) solution and kept at 37° C. for 30 min. The upper white cellrich layer is removed and 10 ml is layered on 9 ml of Ficol-Paque solution (Pharmacia) and centrifuged at 280×g for 10 min. at 5° C. The supernatant is removed and the neutrophil pellet is resuspended in HEPES buffer containing 25 mM N-2-hydroxyethylpiperazine-N^1 -2 ethanesulfonic acid(HEPES), 125 mM NaCl, 2.5 mM KCL, 0.7 mM MgCl2, 0.5 mM and 10 mM glucose at pH 7.4. The red cells in the suspension are lysed by hypotonic shock. The neutrophils are washed by centrifugation in HEPES buffer two times and finally resuspended at a concentration of 20×10^6 cells/ml in the presence of 1 mM CaCl2.
Neutrophils (0.2 ml of suspension) are preincubated with dimethylsulfoxide (DMSO) vehicle with or without test compound (1 ul) for 4 minutes then incubated for 5 minutes with ^14 C-arachidonic acid (Amersham, 59 Ci/mole) at a 9 uM final concentration, and the calcium ionophore A23187 (Calbiochem) at a 1 uM final concentration. These stimulants are added in 10 ul of water:ethanol (9:1). The reaction is stopped by addition of methanol (0.4 ml), and cellular debris is removed by centrifugation. Aliquots (100 ul) of the incubations are run on a Waters two pump high performance liquid chromatography (HPLC) system fitted with a DuPont Zorbax ODS, 5 u, 4×80 […] Reliance Cartridge column and C18 "Guard Pak". The column is initially eluted at 2 ml/min with 80 percent of the mixture water:methanol:acetic acid (46:54:0.08) containing 1 mM EDTA adjusted to pH 6.0 with ammonium hydroxide (Pump A) and 20% methanol (Pump B). At 10 minutes, a linear gradient is established. to reach 100 percent methanol (Pump B) at 27 minutes. Between 27 and 28 minutes, methanol is exchanged for the initial eluting solvent and by 35 minutes the column is reequilibrated for the next sample. The effluent is analyzed by a continuous flow radioactivity monitor (model ROMONA-D) interfaced with a Hewlett Packard Lab Automation System for quantitation of radioactive products. This includes the major 5-lipoxygenase product, 5-hydroxyeicosatetraenoic acid (5-HETE) which elutes at 20 minutes. The results with and without test compound are used to calculate percent inhibition of 5-HETE production.

[2] = target: T2, cyclooxygenase (Homo sapiens, UniProt P23219); assay: Cyclooxygenase Assay with Human Platelets, HHT production; type: cell-based; settings: 15 μM
T2 construct: Cyclooxygenase Assay with Human Platelets; endogenous in cells; host or cells: human blood platelets from healthy volunteers
T2 sequence (P23219 24-599): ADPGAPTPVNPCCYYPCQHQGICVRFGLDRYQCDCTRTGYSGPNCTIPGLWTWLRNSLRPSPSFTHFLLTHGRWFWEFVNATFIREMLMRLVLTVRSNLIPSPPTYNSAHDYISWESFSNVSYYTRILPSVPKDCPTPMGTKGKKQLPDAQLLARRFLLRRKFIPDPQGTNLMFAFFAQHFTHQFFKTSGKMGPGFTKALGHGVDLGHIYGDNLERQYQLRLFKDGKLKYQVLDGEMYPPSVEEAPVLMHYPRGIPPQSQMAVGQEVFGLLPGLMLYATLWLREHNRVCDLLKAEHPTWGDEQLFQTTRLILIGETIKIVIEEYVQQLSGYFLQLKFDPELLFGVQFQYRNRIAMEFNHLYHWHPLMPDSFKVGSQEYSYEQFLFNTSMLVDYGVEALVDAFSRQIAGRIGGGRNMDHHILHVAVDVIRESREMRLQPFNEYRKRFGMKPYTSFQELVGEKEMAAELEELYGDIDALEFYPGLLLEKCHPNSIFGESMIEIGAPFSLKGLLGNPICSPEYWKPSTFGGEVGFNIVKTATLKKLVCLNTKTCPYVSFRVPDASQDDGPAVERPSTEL
Description: Cyclooxygenase Assay with Human Platelets
Blood is collected in acid-citrate-dextrose anticoagulant by venipuncture from normal healthy volunteers who said that they were not on any medication for the previous two weeks. Platelets are isolated by the procedure of Okuma and Uchino (Blood 54:1258-1271 (1979)). In brief, blood is centrifuged at 4° C. at 200×g for 10 minutes to sediment red and white cells. The platelet rich plasma (PRP) supernatant is removed and mixed with one-tenth volume of 77 mM EDTA, pH 7.2 and prostacyclin sodium salt is added to the PRP at a final concentration of 1 nanogram per milliliter(ng/mL). The PRP is centrifuged at 1700×g, 4° C. for 15 minutes. The platelet pellet is resuspended in the HEPES buffer described in the 5-lipoxygenase section above which additionally contained 1 ng/mL prostacyclin and 0.5 mM ethylene glycolbis(B-aminoethyl ether) N,N,N',N'-tetraacetic acid (EGTA) and the suspension is recentrifuged at 1,700×g, 4° C. for 15 minutes. The pellet is resuspended in HEPES buffer containing 0.5 mM EGTA and 1.5 mM CaCl2 at a cell count of 200,000 cells/ul. Platelets (0.2 ml of suspension) are preincubated with test compounds and the ^14 C-arachidonic acid plus the calcium ionophore A23187 stimulant exactly as described for the 5-lipoxygenase assay. The cyclooxygenase product 12-hydroxyheptadecatrienoic acid (HHT) is isolated and quantitated by the HPLC system used for the 5-lipoxygenaseassay. HHT elutes from this system at about eleven minutes. Results are expressed as percent inhibition of HHT production by the test compounds versus the test vehicle alone.

[3] = test system: Reversed Passive Arthus Reaction (RPAR) in the pleural cavity; assay: Reversed Passive Arthus Reaction (RPAR) in the pleural cavity: cells and fluid; type: in vivo, male rats; settings: dose 25 mpk; for inhibition in vivo at 25 mg/kg: Rattus norvegicus, 4 h; for RPAR-Pleural Cavity Percent Inhibition cells / RPAR-Pleural Cavity Percent Inhibition fluid: Table 3A, formula (IIi)
Description: Reversed Passive Arthus Reaction (RPAR) Assay
Groups of 4 male rats were injected in the penile vein with antigen (1 mg BSA in 0.2 mL of saline per rat) and 0.5 hour later injected in the pleural cavity with antibody (1.0 mg antibody protein in the IgG fraction of rabbit anti-BSA in 0.2 mL). […] After 4 hours the animals were killed with CO2, and the pleural cavities were opened and the exudate drained into a graduated conical glass centrifuge tube containing indomethacin (1.8 ug) and nordihydroguaiaretic acid (NDGA) (15 ug) to block ex vivo metabolite synthesis. The volume of the exudate was measured. The cavity was then washed out with saline-EDTA to achieve a final volume of 5.0 mL. The number of cells were determined in a Colulter Counter. The cells were spun-down (1000×g) and the exudate supernatant was added to 4 volumes of 95% ethanol and samples were kept on ice for 30 minutes. After removal of the protein precipitate (2,500×g) the ethanol extract of the exudate was dried under N2 and then stored at -20° C. For radioimmunoassay (RIA) analysis the samples were redissolved in water to a volume of 1 mL per rat. Utilizing internally spiked samples, recovery of TXB2 (tritiated thromboxane B2) and LTE4 (tritiated leukotriene-E4) from exudates was determined to be 84±2% (SEM) and 89±2% (N=4), respectively. Exudate samples were directly assayed in duplicate with the commercial ^3 H-TXB2 RIA kit from New England Nuclear and the ^3 H-LTC4 /D4 /E4 kit from Amersham. The assay was validated using reversed-phase HPLC analysis of LTs in the standard procedure described by M. W. Musch, R. W. Bryant, C. Coscollaela, R. F. Myers and M. I. Siegel, Prostaglandins, Vol. 29, pp 405-430 (1985). Samples of ethanol exudate extract were "spiked" with ^3 H-LTs to follow HPLC purification and recovery.

[4] = read-out: RPAR-Pleural Cavity % Inhibition cells
[5] = read-out: RPAR-Pleural Cavity % Inhibition fluid

inhibition at 15 µM ([1]; 15 μM): 67%
% inhibition of HHT production in human platelets at 15 µM ([2]; read-out: PMN Assay % Inhibition HHT): 23%
Compound: O=C1C(Sc2ccccc2)c2cccnc2N1c1ccccc1 (stereo not shown) [Compound 11, 1,3-dihydro-1-phenyl-3-(phenylthio)-2H-pyrrolo[2,3-b]pyridin-2-one]

inhibition at 15 µM ([1]; 15 μM): 79%
Compound: O=C1C(Sc2ccccc2)c2cccnc2N1c1cccc(C(F)(F)F)c1 (stereo not shown) [Compound 12, 1,3-dihydro-3-(phenylthio)-1-(3-trifluoromethylphenyl)-2H-pyrrolo[2,3-b]pyridin-2-one]

inhibition at 50 µM ([1]; 50 μM): 84%
Compound: CC(C)c1ccc(N2C(=O)C(Sc3ccccc3)c3cccnc32)cc1 (stereo not shown) [Compound 15, 1,3-dihydro-1-(4-(1-methylethyl)-phenyl)-3-(phenylthio)-2H-pyrrolo[2,3-b]pyridin-2-one]

inhibition at 15 µM ([1]; 15 μM): 24%
Compound: CN1C(=O)C([S+]([O-])c2ccccc2)c2cccnc21 (stereo not shown) [Compound 24, 1,3-dihydro-1-methyl-3-(phenylsulfinyl)-2H-pyrrolo[2,3-b]pyridin-2-one]

inhibition at 15 µM ([1]; 15 μM): 8%
Compound: O=C1C(SCCO)c2cccnc2N1c1ccccc1 (stereo not shown) [Compound 25, 1,3-dihydro-3-(2-hydroxyethylthio)-1-phenyl-2H-pyrrolo[2,3-b]pyridin-2-one]

inhibition at 15 µM ([1]; 15 μM): 16%
Compound: O=C1C(Sc2ccccc2)c2cccnc2N1Cc1ccccc1 (stereo not shown) [Compound 27, 1,3-dihydro-1-(phenylmethyl)-3-(phenylthio)-2H-pyrrolo[2,3-b]pyridin-2-one]

inhibition at 15 µM ([1]; 15 μM): 10%
Compound: CN1C(=O)C(S(=O)(=O)c2ccccc2)c2cccnc21 (stereo not shown) [Compound 31, 1,3-dihydro-1-methyl-3-(phenylsulfonyl)-2H-pyrrolo[2,3-b]pyridin-2-one]

inhibition at 15 µM ([1]; 15 μM): 21%
Compound: CSC1(C)C(=O)N(c2ccccc2)c2ncccc21 (stereo not shown) [Compound 32, 1,3-dihydro-3-methyl-3-(methylthio)-1-phenyl--2H-pyrrolo[2,3-b]pyridin-2-one]

Further lines, the compound ahead of its results:

Compound: 1,3-dihydro-3-(2-methoxyphenylthio)-1-phenyl-2H-pyrrolo[2,3-b]pyridin-2-one [Compound 23]
PMN Assay % Inhibition 5-HETE ([1]; 15 μM): 47%
PMN Assay % Inhibition 5-HETE ([1]; 50 μM): 81%
% inhibition of HHT production in human platelets [2]: 49%

Compound: CC1(F)C(=O)N(c2ccccc2)c2ncccc21 (stereo not shown) [Compound 4, 1,3-dihydro-3-fluoro-3-methyl-1-phenyl-2H-pyrrolo[2,3-b]pyridin-2-one]
inhibition in vivo at 25 mg/kg [3, 4]: 50%
inhibition in vivo at 25 mg/kg [3, 5]: 35%

Compound: CC1(C)C(=S)N(c2ccccc2)c2ncccc21 [Compound 7, 1,3-dihydro-3,3-dimethyl-1-phenyl-2H-pyrrolo[2,3-b]pyridin-2-thione]
inhibition in vivo at 25 mg/kg [3, 4]: 35%
inhibition in vivo at 25 mg/kg [3, 5]: 33%

Compound: CSc1ccc(N2C(=O)C(C)(C)c3cccnc32)cc1 [Compound 10, 1,3-dihydro-3,3-dimethyl-1-[4-(methylthio)phenyl]-2H-pyrrolo[2,3-b]pyridin-2-one]
inhibition in vivo at 25 mg/kg [3, 4]: 29%
inhibition in vivo at 25 mg/kg [3, 5]: 37%

Compound: COc1ccc(SC2C(=O)N(c3ccccc3)c3ncccc32)cc1 (stereo not shown) [Compound 21, 1,3-dihydro-3-(4-methoxyphenylthio)-1-phenyl-2H-pyrrolo[2,3-b]pyridin-2-one]
inhibition at 15 µM ([1]; 15 μM): 61%

Compound: CC(=O)C1(SCCO)C(=O)N(c2ccccc2)c2ncccc21 (stereo not shown) [Compound 29]
inhibition at 15 µM ([1]; 15 μM): 56%

Compound: CC(=O)OCCSC1C(=O)N(c2ccccc2)c2ncccc21 (stereo not shown) [Compound 30, 1,3-dihydro-3-[2-(acetoxy)-ethylthio]-1-phenyl-2H-pyrrolo[2,3-b]pyridin-2-one]
inhibition at 15 µM ([1]; 15 μM): 26%

Compound: O=C(O)Cc1cccnc1Nc1cccc(C(F)(F)F)c1 [Compound 45, 2-(3-trifluoromethylphenylamino)-3-pyridine acetic acid]
RPAR-Pleural Cavity Percent Inhibition cells [3]: 22%
RPAR-Pleural Cavity Percent Inhibition fluid [3]: 14%

Compound: CC(C)(C(=O)O)c1cccnc1Nc1ccc(Cl)cc1 [Compound 46, sodium 2-(4-chlorophenylamino)-α,α-dimethyl-3-pyridine acetate]
RPAR-Pleural Cavity Percent Inhibition cells [3]: 62%
RPAR-Pleural Cavity Percent Inhibition fluid [3]: 71%

Compound: O=C(O)Cc1cccnc1Nc1ccc(Cl)c(Cl)c1 [Compound 47, sodium 2-(3,4-dichlorophenylamino)-3-pyridine acetate]
RPAR-Pleural Cavity Percent Inhibition cells [3]: 16%
RPAR-Pleural Cavity Percent Inhibition fluid [3]: 19%

Compound: O=C(O)Cc1cccnc1Nc1ccc(Cl)cc1 [Compound 48, sodium 2-(4-chlorophenylamino)-3-pyridine acetate]
RPAR-Pleural Cavity Percent Inhibition cells [3]: 0%
RPAR-Pleural Cavity Percent Inhibition fluid [3]: 0%

Compound: CC(C(=O)O)c1cccnc1Nc1ccc(Cl)cc1 (stereo not drawn) [Compound 49, sodium 2-(4-chlorophenylamino)-α-methyl-3-pyridine acetate]
RPAR-Pleural Cavity Percent Inhibition cells [3]: 67%
RPAR-Pleural Cavity Percent Inhibition fluid [3]: 54%
